Results taken from ChEMBL document CHEMBL3045406, “Enantioselective Relieving Activity of α-Methylbenzylphenylureas toward Bensulfuron-methyl Injury to Rice (Oryza sativa)” (Biosci Biotechnol Biochem, 1999).

Key:
Oryza sativa [1] = test: Safener indices, ratio of compound effect of Oryza sativa (rice) growth rate to relieving activity against bensulfuron-methyl induced injury to Oryza sativa growth rate at 10 uM
Oryza sativa [2] = test: Effect on Oryza sativa (rice) assessed as growth rate at 1 uM relative to control; type: organism-based; details: in vivo
Oryza sativa [3] = test: Safener indices, ratio of compound effect of Oryza sativa (rice) growth rate to relieving activity against bensulfuron-methyl induced injury to Oryza sativa growth rate at 1 uM
Oryza sativa [4] = test: Effect on Oryza sativa (rice) assessed as growth rate at 0.1 uM relative to control; type: organism-based; details: in vivo
[5] = Hydrophobicity, log K of the compound; type: physicochemical; details: octanol/water
Oryza sativa [6] = test: Relieving activity against bensulfuron-methyl induced injury to Oryza sativa (rice) assessed as growth rate at 0.1 uM (Rbv = 46 to 53%); type: functional
Oryza sativa [7] = test: Relieving activity against bensulfuron-methyl induced injury to Oryza sativa (rice) assessed as growth rate at 10 uM (Rbv = 46 to 53%); type: functional
Oryza sativa [8] = test: Safener indices, ratio of compound effect of Oryza sativa (rice) growth rate to relieving activity against bensulfuron-methyl induced injury to Oryza sativa growth rate at 0.1 uM
Oryza sativa [9] = test: Effect on Oryza sativa (rice) assessed as growth rate at 10 uM relative to control; type: organism-based; details: in vivo
Oryza sativa [10] = test: Relieving activity against bensulfuron-methyl induced injury to Oryza sativa (rice) assessed as growth rate at 1 uM (Rbv = 46 to 53%); type: functional

| SMILES | Activity (Oryza sativa [2]) [%] | Activity (Oryza sativa [4]) [%] | log K [5] | Activity (Oryza sativa [9]) [%] | Ratio (Oryza sativa [1]) | Ratio (Oryza sativa [3]) | Activity (Oryza sativa [6]) [%] | Activity (Oryza sativa [7]) [%] | Ratio (Oryza sativa [8]) | Activity (Oryza sativa [10]) [%] |
| --- | --- | --- | --- | --- | --- | --- | --- | --- | --- | --- |
| C[C@H](NC(=O)Nc1ccc(F)cc1F)c1ccccc1 | 100 | 101 | 0.394 | 99 | 85 | 56 | 65 | 93 | 28 | 79 |
| C[C@@H](NC(=O)Nc1cc(F)ccc1F)c1ccccc1 | 100 | 100 | 0.464 | 92 | 57 | 34 | 54 | 77 | 7 | 67 |
| C[C@@H](NC(=O)Nc1cc(F)cc(F)c1)c1ccccc1 | 98 | 98 | 0.452 | 96 | 33 | 20 | 54 | 65 | 10 | 59 |
| C[C@@H](NC(=O)Nc1cccc(I)c1)c1ccccc1 | 75 | 81 | 0.568 | 73 | 53 | 44 | 57 | 71 | 26 | 66 |
| C[C@H](NC(=O)Nc1cccc(I)c1)c1ccccc1 | 95 | 98 | 0.568 | 93 | 80 | 66 | 72 | 90 | 43 | 83 |
| C[C@@H](NC(=O)Nc1ccc(I)cc1)c1ccccc1 | 91 | 100 | 0.556 | 85 | 63 | 58 | 69 | 79 | 35 | 78 |
| C[C@H](NC(=O)Nc1ccc(I)cc1)c1ccccc1 | 97 | 99 | 0.556 | 95 | 85 | 70 | 70 | 92 | 39 | 85 |
| C[C@@H](NC(=O)Nc1cc(C(F)(F)F)cc(C(F)(F)F)c1)c1ccccc1 | 93 | 100 | 0.831 | 53 | 30 | 34 | 56 | 49 | 10 | 65 |
| C[C@H](NC(=O)Nc1cc(C(F)(F)F)cc(C(F)(F)F)c1)c1ccccc1 | 95 | 101 | 0.831 | 86 | 44 | 33 | 57 | 69 | 13 | 65 |
| CCc1cccc(CC)c1NC(=O)N[C@H](C)c1ccccc1 | 101 | 101 | 0.523 | 99 | 53 | 25 | 54 | 77 | 6 | 63 |
| CCc1cccc(CC)c1NC(=O)N[C@@H](C)c1ccccc1 | 93 | 101 | 0.523 | 83 | 6 | 6 | 52 | 46 | 1 | 50 |
| C[C@@H](NC(=O)Nc1cc(C(C)(C)C)ccc1C(C)(C)C)c1ccccc1 | 99 | 100 | 1.001 | 99 | 43 | 23 | 57 | 73 | 11 | 63 |
| C[C@H](NC(=O)Nc1cc(C(C)(C)C)ccc1C(C)(C)C)c1ccccc1 | 98 | 98 | 1.001 | 97 | 46 | 15 | 56 | 74 | 8 | 59 |

Further lines, with some results ahead:

| Activity (Oryza sativa [2]) [%] | Activity (Oryza sativa [4]) [%] | log K [5] | Activity (Oryza sativa [9]) [%] | SMILES | Ratio (Oryza sativa [1]) | Ratio (Oryza sativa [3]) | Activity (Oryza sativa [6]) [%] | Activity (Oryza sativa [7]) [%] | Ratio (Oryza sativa [8]) | Activity (Oryza sativa [10]) [%] |
| --- | --- | --- | --- | --- | --- | --- | --- | --- | --- | --- |
| 98 | 100 | 0.464 | 99 | C[C@H](NC(=O)Nc1cc(F)ccc1F)c1ccccc1 | 92 | 77 | 74 | 96 | 47 | 89 |
| 100 | 100 | 0.238 | 98 | C[C@@H](NC(=O)Nc1c(F)cccc1F)c1ccccc1 | 42 | 8 | 51 | 71 | 2 | 54 |
| 99 | 100 | 0.238 | 99 | C[C@H](NC(=O)Nc1c(F)cccc1F)c1ccccc1 | 62 | 22 | 53 | 81 | 6 | 61 |
| 99 | 99 | 0.398 | 96 | C[C@@H](NC(=O)Nc1ccc(F)c(F)c1)c1ccccc1 | 47 | 21 | 52 | 73 | 4 | 60 |
| 100 | 99 | 0.398 | 98 | C[C@H](NC(=O)Nc1ccc(F)c(F)c1)c1ccccc1 | 64 | 41 | 57 | 82 | 14 | 70 |
| 99 | 100 | 0.435 | 90 | C[C@@H](NC(=O)Nc1cccc(F)c1F)c1ccccc1 | 73 | 31 | 53 | 85 | 5 | 66 |
| 100 | 100 | 0.435 | 100 | C[C@H](NC(=O)Nc1cccc(F)c1F)c1ccccc1 | 87 | 75 | 68 | 93 | 36 | 88 |
| 100 | 100 | 0.394 | 93 | C[C@@H](NC(=O)Nc1ccc(F)cc1F)c1ccccc1 | 66 | 21 | 53 | 82 | 4 | 61 |
